Measured values reported in patent US8691838B2, “Heterocycles as protein kinase inhibitors” (Amgen Inc., priority 2008, dated 2014).
pKi: −log10 of the molar value.

Each molecule was assayed against c-Met (Homo sapiens, UniProt P08581) (assay: c-Met receptor assay (HTRF kinase assay with GST-cMet (P) enzyme, gastrin substrate)).
Chain of c-Met (P08581 1058-1365): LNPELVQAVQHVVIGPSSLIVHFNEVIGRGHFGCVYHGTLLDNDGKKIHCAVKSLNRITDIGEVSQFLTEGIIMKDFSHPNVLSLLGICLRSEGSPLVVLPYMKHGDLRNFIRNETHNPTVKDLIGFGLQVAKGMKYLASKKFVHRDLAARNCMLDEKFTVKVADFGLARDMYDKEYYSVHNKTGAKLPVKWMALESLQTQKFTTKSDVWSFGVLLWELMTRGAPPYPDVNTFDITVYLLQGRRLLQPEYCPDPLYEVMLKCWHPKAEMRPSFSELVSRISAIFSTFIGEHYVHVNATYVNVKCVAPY
Experimental: A Kinase reaction Buffer was prepared as follows: 60 mM HEPES pH 7.4; 50 mM NaCl; 20 mM MgCl2; 5 mM MnCl2. When the assay was carried out, the following ingredients were freshly added: 2 mM DTT; 0.05% BSA; 0.1 mM Na3OV4.
Then incubated the plate at RT for 30 min.
KM ATP and KM gastrin for various enzymes were determined by HTRF/^33P labeling and HTRF methods.
In the case of `Cc1cc(N2CCc3nnn(Cc4ccc5ncccc5c4)c3C2=O)sn1` [Example 2, 5-(3-methylisothiazol-5-yl)-3-(quinolin-6-ylmethyl)-6,7-dihydro-3H-[1,2,3]triazolo[4,5-c]pyridin-4(5H)-one], the pKi was 7.92. In the case of `CC(c1ccc2ncccc2c1)n1nnc2c(=O)[nH]ccc21` (racemic) [Example 10, (R/S)-1-(1-(quinolin-6-yl)ethyl)-1H-[1,2,3]triazolo[4,5-c]pyridin-4(5H)-one], the pKi was 6.34. `Cc1cc(N2CCc3nnn([C@H](C)c4ccc5ncccc5c4)c3C2=O)sn1` [Example 5, (R)-5-(3-methylisothiazol-5-yl)-3-(1-(quinolin-6-yl)ethyl)-6,7-dihydro-3H-[1,2,3]triazolo[4,5-c]pyridin-4(5H)-one] gave a pKi of 6.88. `O=C1c2c(nnn2Cc2ccc3ncccc3c2)CCN1c1ccccc1` [Example 1, 5-phenyl-3-(quinolin-6-ylmethyl)-6,7-dihydro-3H-[1,2,3]triazolo[4,5-c]pyridin-4(5H)-one] gave a pKi of 6.44. In the case of `C[C@@H](c1ccc2ncccc2c1)n1nnc2ccn(-c3ccc(Cl)c(C(F)(F)F)c3)c(=O)c21` [Example 29, (S)-5-(4-chloro-3-(trifluoromethyl)phenyl)-3-(1-(quinolin-6-yl)ethyl)-3H-[1,2,3]triazolo[4,5-c]pyridin-4(5H)-one], the pKi was 8.47. In the case of `C[C@H](c1ccc2ncccc2c1)n1nnc2ccn(Cc3ccccc3)c(=O)c21` [Example 32, (R)-5-benzyl-3-(1-(quinolin-6-yl)ethyl)-3H-[1,2,3]triazolo[4,5-c]pyridin-4(5H)-one], the pKi was 5.88. For `C[C@H](c1ccc2ncccc2c1)n1nnc2ccn(-c3ccc(Cl)c(C(F)(F)F)c3)c(=O)c21` [Example 30, (R)-5-(4-chloro-3-(trifluoromethyl)phenyl)-3-(1-(quinolin-6-yl)ethyl)-3H-[1,2,3]triazolo[4,5-c]pyridin-4(5H)-one], the pKi was 6.33. Work on `Cc1cc(N2CCc3nnn([C@@H](C)c4ccc5ncccc5c4)c3C2=O)sn1` [Example 4, (S)-5-(3-methylisothiazol-5-yl)-3-(1-(quinolin-6-yl)ethyl)-6,7-dihydro-3H-[1,2,3]triazolo[4,5-c]pyridin-4(5H)-one] yielded a pKi of 8.10. `C[C@@H](c1ccc2ncccc2c1)n1nnc2ccn(Cc3ccccc3)c(=O)c21` [Example 31, (S)-5-benzyl-3-(1-(quinolin-6-yl)ethyl)-3H-[1,2,3]triazolo[4,5-c]pyridin-4(5H)-one] gave a pKi of 5.96.
